Laboratory results published in US11491245B2, “Gadolinium chelate compounds for use in magnetic resonance imaging” (BAYER PHARMA AKTIENGESELLSCHAFT, priority 2015, dated 2022).

Key:
Type in all cases: physicochemical
[1] = Relaxivity measurements at 3.0 T; conditions: 37° C., normalized to Gd, average ± standard deviation
Procedure: Relaxivity measurements at 3.0 T were performed with a whole body 3.0 T MRI Scanner (Philips Intera, Philips Healthcare, Hamburg, Germany) using a knee-coil (SENSE-Knee-8, Philips Healthcare, Hamburg, Germany). The sample tubes (CryoTubetm Vials, Thermo Scientific 1.8 mL, Roskilde, Denmark) were positioned in 3 rows of 4 and 5 tubes in a plastic holder in a box filled with water. The temperature was adjusted to 37° C. For the MRI sequence, the shortest possible echo-time (TE) with 7.46 milliseconds was used. The inversion times were chosen to optimize the sequence to measure T1 values corresponding to the estimated T1 range of all relaxation times of contrast media containing solutions. The following inversion times (TIs) were applied: 50, 100, 150, 200, 300, 500, 700, 1000, 1400, 2100, 3200, and 4500 milliseconds. The sequence was run with a constant relaxation delay of 3.4 seconds after the registration of the last echo (variable TR in the range from 3450 to 7900 milliseconds). For details of the fit procedure, see Rohrer et. al. (Invest. Radiol. 2005; 40, 11: 715-724). The experimental matrix of the phantom measurement was 320×320.
The relaxivities were evaluated using three different concentrations of each compound (3 concentrations between 0.05 and 2 mM).
(§1) The T1 relaxation times of the Example compounds 1-6 were measured in water and human plasma. Human plasma preparation: For each experiment fresh blood was taken from a volunteer using 10 mL citrate-tubes (Sarstedt S-Monovette 02.1067.001, 10 mL, Citrate). The 10 mL citrate-tubes were carefully inverted 10 times to mix blood and anticoagulant and centrifuged for 15 minutes at 1811 g at room temperature (Eppendorf, Centrifuge 5810R).
The relaxivities ri (where i=1, 2) were calculated on the basis of the measured relaxation rates Ri in water and plasma: Ri=Ri(0)+ri[CGd], where Ri(0) represent the relaxation rate of the respective solvent and CGd the concentration of the compound normalized to the Gadolinium (Table 2).

[2] = Relaxivity measurements at 1.41 T; conditions: 1.41 T, 37° C., normalized to Gd; for r1 FBS: fetal bovine serum
Procedure: Relaxivity measurements at 1.41 T were performed using a MiniSpec mq60 spectrometer (Bruker Analytik, Karlsruhe, Germany) operating at a resonance frequency of 60 MHz and a temperature of 37° C. The T1 relaxation times were determined using the standard inversion recovery (IR) method with a fixed relaxation delay of at least 5×T1. The variable inversion time (TI) was calculated automatically by the standard software of the MiniSpec mq60 (8 steps). The T2 measurements were done by using a Carr-Purcell-Meiboom-Gill (CPMG) pulse sequence, applying a relaxation delay of at least 5×T1.
Each relaxivity measurement was performed using three different Gd concentrations (3 concentrations between 0.05 and 2 mM). The T1 and T2 relaxation times of the example compounds 1-10 were measured in different media for example in water, fetal bovine serum (FBS, Sigma, F7524) and human plasma.
as §1, with “Human” for “The T1 relaxation times of the Example compounds 1-6 were measured in water and human plasma. Human”
The relaxivities ri (where i=1, 2) were calculated on the basis of the measured relaxation rates Ri in water and plasma: Ri=Ri(0)+ri[CGd], where Ri(0) represent the relaxation rate of the respective solvent and CGd the concentration of the compound normalized to the Gadolinium. The Gadolinium concentrations of the investigated solutions were verified by Inductively Coupled Plasma Mass Spectroscopy (ICP-MS Agilent 7500a, Waldbronn, Germany).

[3] = Chemical stability (autoclaving at 121° C.); conditions: 5 mmol Gd/L in 10 mM Tris-HCl buffer, pH 7.4, 121° C. for 20 min
[4] = Water solubility; conditions: 10 mM Tris-HCl buffer, 20° C.
Procedure: The water solubility of the compounds was determined at room temperature (20° C.) in 0.5 mL buffer solution (10 mM Tris-HCl) in the microcentrifuge tubes (Eppendorf, 2.0 mL safe-lock caps). The solid compound was added stepwise to the buffer solution. The suspension was mixed using a shaker (Heidolph Reax 2000) and treated 5 min in an ultrasound bath (Bandelin, Sonorex Super RK255H) The suspension was stored at room temperature (20° C.) over night and final Gadolinium concentration was determined by inductively coupled plasma mass spectrometry (ICP-MS).

Row | Compound | r1 human plasma [1] | r1 water [1] | r1 FBS [2] | r1 human plasma [2] | r1 water [2] | appearance of the solution after autoclaving [3] | Solubility [4]
1 | CC(C(=O)NCC(=O)NCC(CNC(=O)CNC(=O)C(C)N1CCN(CC(=O)[O-])CCN(CC(=O)[O-])CCN(CC(=O)[O-])CC1)C(=O)NCCN(CCNC(=O)C(CNC(=O)CNC(=O)C(C)N1CCN(CC(=O)[O-])CCN(CC(=O)[O-])CCN(CC(=O)[O-])CC1)CNC(=O)CNC(=O)C(C)N1CCN(CC(=O)[O-])CCN(CC(=O)[O-])CCN(CC(=O)[O-])CC1)C(=O)CNC(=O)C(C)N1CCN(CC(=O)[O-])CCN(CC(=O)[O-])CCN(CC(=O)[O-])CC1)N1CCN(CC(=O)[O-])CCN(CC(=O)[O-])CCN(CC(=O)[O-])CC1.[Gd+3].[Gd+3].[Gd+3].[Gd+3].[Gd+3] (centres unmarked) [Example 1] | 10.8 ± 0.1 L/mmol/s | 9.5 ± 0.2 L/mmol/s | 13.2 L/mmol/s | 13.0 L/mmol/s | 11.1 L/mmol/s | still clear and colorless | >1200 mmol Gd/L
2 | CC(C(=O)NCC(=O)NCC(CNC(=O)CNC(=O)C(C)N1CCN(CC(=O)[O-])CCN(CC(=O)[O-])CCN(CC(=O)[O-])CC1)C(=O)NCCN(CCNC(=O)C(CNC(=O)CNC(=O)C(C)N1CCN(CC(=O)[O-])CCN(CC(=O)[O-])CCN(CC(=O)[O-])CC1)CNC(=O)CNC(=O)C(C)N1CCN(CC(=O)[O-])CCN(CC(=O)[O-])CCN(CC(=O)[O-])CC1)C(=O)C(CNC(=O)CNC(=O)C(C)N1CCN(CC(=O)[O-])CCN(CC(=O)[O-])CCN(CC(=O)[O-])CC1)CNC(=O)CNC(=O)C(C)N1CCN(CC(=O)[O-])CCN(CC(=O)[O-])CCN(CC(=O)[O-])CC1)N1CCN(CC(=O)[O-])CCN(CC(=O)[O-])CCN(CC(=O)[O-])CC1.[Gd+3].[Gd+3].[Gd+3].[Gd+3].[Gd+3].[Gd+3] (centres unmarked) [Example 2] | 11.4 ± 0.1 L/mmol/s | 9.2 ± 0.3 L/mmol/s | 13.4 L/mmol/s | 13.9 L/mmol/s | 12.1 L/mmol/s | still clear and colorless | >1200 mmol Gd/L
3 | CC(C(=O)NCC(=O)N(CCNC(=O)C1CN(C(=O)CNC(=O)C(C)N2CCN(CC(=O)[O-])CCN(CC(=O)[O-])CCN(CC(=O)[O-])CC2)CCN(C(=O)CNC(=O)C(C)N2CCN(CC(=O)[O-])CCN(CC(=O)[O-])CCN(CC(=O)[O-])CC2)C1)CCNC(=O)C1CN(C(=O)CNC(=O)C(C)N2CCN(CC(=O)[O-])CCN(CC(=O)[O-])CCN(CC(=O)[O-])CC2)CCN(C(=O)CNC(=O)C(C)N2CCN(CC(=O)[O-])CCN(CC(=O)[O-])CCN(CC(=O)[O-])CC2)C1)N1CCN(CC(=O)[O-])CCN(CC(=O)[O-])CCN(CC(=O)[O-])CC1.[Gd+3].[Gd+3].[Gd+3].[Gd+3].[Gd+3] (centres unmarked) [Example 4, Pentagadolinium [4-(1-{[2-(bis{2-[({1,4-bis[({2-[4,7,10-tris(carboxylatomethyl)-1,4,7,10-tetraazacyclododecan-1-yl]propanoyl}amino)acetyl]-1,4-diazepan-6-yl}carbonyl)-amino]ethyl}amino)-2-oxoethyl]amino}-1-oxopropan-2-yl)-7,10-bis(carboxylatomethyl)-1,4,7,10-tetraazacyclododecan-1-yl]acetate] | 11.8 ± 0.3 L/mmol/s | 10.1 ± 0.2 L/mmol/s | 13.3 L/mmol/s | 13.2 L/mmol/s | 11.5 L/mmol/s | – | >1200 mmol Gd/L
4 | Hexagadolinium 2,2′,2″,2′″,2″″,2′″″,2″″″,2′″″″,2″″″″,2′″″″″,2″″″″″,2′″″″″″,2″″″″″″, 2′″″″″″″,2″″″″″″″, 2′″″″″″″″,2″″″″″″″″,2′″″″″″″″″-{ethane-1,2-diylcarbamoyl-1,4-diazepane-6,1,4-triyltris[(2-oxoethane-2,1-diyl)imino(1-oxopropane-1,2-diyl)-1,4,7,10-tetraazacyclododecane-10,1,4,7-tetrayl]}octadecaacetate [Example 5] | 12.4 ± 0.2 L/mmol/s | 10.8 ± 0.3 L/mmol/s | 14.6 L/mmol/s | 14.3 L/mmol/s | 13.0 L/mmol/s | – | >1100 mmol Gd/L
